Measured values published in patent publication US20260022143A1, “Cyclic Peptide Inhibitors of IL-23” (JANSSEN PHARMACEUTICA NV, priority 2022, published 2026).
Counter-ions that a name gives are not always drawn. Starred links: 1 amine or outer side, 2 acyl side, 3 side chain; linkers in the order of their positions; H or OH if unused. Positions of bridges follow the written chain, without caps; N, C: chain ends. Non-standard residues stand in square brackets, D forms with d. Residues, ends and D or L forms follow the SMILES beside them. Groups on a side chain read outwards from the residue. *: point of attachment. Me3N+(CH2)2O(CH2)2O(CH2)2CO = C[N+](C)(C)CCOCCOCCC(=O)*; Trp(7-CF3) = N[C@@H](Cc1c[nH]c2c(C(F)(F)F)cccc12)C(=O)O; Trp(7-Me) = Cc1cccc2c(C[C@H](N)C(=O)O)c[nH]c12; Hexanoyl(6-NMe3+) = C[N+](C)(C)CCCCCC(=O)*; Lys(Me3) = C[N+](C)(C)CCCC[C@H](N)C(=O)O; 2Nal = N[C@@H](Cc1ccc2ccccc2c1)C(=O)O; AEF = NCCOc1ccc(C[C@H](N)C(=O)O)cc1; X19 = C[N+](C)(C)C[C@@H](CC(=O)O)N*; 3Pal = N[C@@H](Cc1cccnc1)C(=O)O; Lys(Me) = CNCCCC[C@H](N)C(=O)O; X7 = COCCOCCOCCOCCOCCOCCC(=O)*; Pen = CC(C)(S)[C@H](N)C(=O)O; Suc = O=C(CCC(=O)[*:2])[*:1]; Thp = NC1(C(=O)O)CCOCC1; Dap = NC[C@H](N)C(=O)O; Me2NCH2CH2 = CN(C)CC*; Tfa = O=C(C(F)(F)F)*; Sar = CNCC(=O)O

Assay: Exposed Polar Surface Area (EPSA)
Type: physicochemical
Settings: SFC on Chirex 3014 column; sample 1 mM DMSO stock; read-out: EPSA
Procedure, shortened: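 SFC retention on a Chirex 3014 (S-valine/(R)-1-(α-naphthyl)ethylamine) column at 35 °C, 4 mL/min, 14 MPa outlet, 5–60% methanol/20 mM ammonium formate gradient in CO2. Retention times converted to EPSA (Å²) via linear calibration with 8 standards; samples from 1 mM DMSO stock, run in duplicate.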

Row | Structure (SMILES) | EPSA [A^2]
1 | CC(=O)NCCCC[C@@H]1NC(=O)[C@H](Cc2c[nH]c3c(C)cccc23)NC(=O)[C@H]([C@@H](C)O)NC(=O)[C@H](CC(N)=O)NC(=O)[C@@H](NC(=O)[C@@H](CCCCNC(=O)CCOCCOCC[N+](C)(C)C)NC(C)=O)C(C)(C)SSC(C)(C)[C@@H](C(=O)N[C@@H](Cc2ccc(OCCN)cc2)C(=O)N[C@@H](Cc2ccc3ccccc3c2)C(=O)NC2(C(=O)N[C@@H](CCC(=O)O)C(=O)N[C@@H](CC(N)=O)C(=O)N[C@@H](Cc3cccnc3)C(=O)N(C)CC(N)=O)CCOCC2)NC1=O [compound 84] (Ac-[dK](Me3N+(CH2)2O(CH2)2O(CH2)2CO)[Pen]NT[Trp(7-Me)]K(Ac)[Pen][AEF][2Nal][Thp]EN[3Pal][Sar]-NH2; disulfide 2-7) | 166
2 | CC(=O)NCCCC[C@@H]1NC(=O)[C@H](Cc2c[nH]c3c(C)cccc23)NC(=O)[C@H]([C@@H](C)O)NC(=O)[C@H](CC(N)=O)NC(=O)[C@@H](NC(C)=O)C(C)(C)SSC(C)(C)[C@@H](C(=O)N[C@@H](Cc2ccc(OCCN)cc2)C(=O)N[C@@H](Cc2ccc3ccccc3c2)C(=O)NC2(C(=O)N[C@@H](CCCCNC(=O)CCCCC[N+](C)(C)C)C(=O)N[C@@H](CC(N)=O)C(=O)N[C@@H](Cc3cccnc3)C(=O)N(C)CC(N)=O)CCOCC2)NC1=O [compound 85] (Ac-[Pen]NT[Trp(7-Me)]K(Ac)[Pen][AEF][2Nal][Thp]K(Hexanoyl(6-NMe3+))N[3Pal][Sar]-NH2; disulfide 1-6) | 151
3 | CC(=O)NCCCC[C@@H]1NC(=O)[C@H](Cc2c[nH]c3c(C)cccc23)NC(=O)[C@H]([C@@H](C)O)NC(=O)[C@H](CC(N)=O)NC(=O)[C@@H](NC(C)=O)C(C)(C)SSC(C)(C)[C@@H](C(=O)N[C@@H](Cc2ccc(OCCN)cc2)C(=O)N[C@@H](Cc2ccc3ccccc3c2)C(=O)NC2(C(=O)N[C@@H](CCCCNC(=O)CCOCCOCC[N+](C)(C)C)C(=O)N[C@@H](CC(N)=O)C(=O)N[C@@H](Cc3cccnc3)C(=O)N(C)CC(N)=O)CCOCC2)NC1=O [compound 86] (Ac-[Pen]NT[Trp(7-Me)]K(Ac)[Pen][AEF][2Nal][Thp]K(Me3N+(CH2)2O(CH2)2O(CH2)2CO)N[3Pal][Sar]-NH2; disulfide 1-6) | 150
4 | CC(=O)NCCCC[C@@H]1NC(=O)[C@H](Cc2c[nH]c3c(C)cccc23)NC(=O)[C@H]([C@@H](C)O)NC(=O)[C@H](CC(N)=O)NC(=O)[C@@H](NC(=O)[C@@H](CCCCNC(=O)CCOCCOCC[N+](C)(C)C)NC(C)=O)C(C)(C)SSC(C)(C)[C@@H](C(=O)N[C@@H](Cc2ccc(OCCN)cc2)C(=O)N[C@@H](Cc2ccc3ccccc3c2)C(=O)NC2(C(=O)N[C@@H](CCCCNC(C)=O)C(=O)N[C@@H](CC(N)=O)C(=O)N[C@@H](Cc3cccnc3)C(=O)N(C)CC(N)=O)CCOCC2)NC1=O [compound 88] (Ac-[dK](Me3N+(CH2)2O(CH2)2O(CH2)2CO)[Pen]NT[Trp(7-Me)]K(Ac)[Pen][AEF][2Nal][Thp]K(Ac)N[3Pal][Sar]-NH2; disulfide 2-7) | 158
5 | CC(=O)NCCCC[C@@H]1NC(=O)[C@H](Cc2c[nH]c3c(C)cccc23)NC(=O)[C@H]([C@@H](C)O)NC(=O)[C@H](CC(N)=O)NC(=O)[C@@H](NC(=O)CCCCC[N+](C)(C)C)C(C)(C)SSC(C)(C)[C@@H](C(=O)N[C@@H](Cc2ccc(OCCN)cc2)C(=O)N[C@@H](Cc2ccc3ccccc3c2)C(=O)NC2(C(=O)N[C@@H](CCCCNC(C)=O)C(=O)N[C@@H](CC(N)=O)C(=O)N[C@@H](Cc3cccnc3)C(=O)N(C)CC(N)=O)CCOCC2)NC1=O [compound 89] ({Hexanoyl(6-NMe3+)}-[Pen]NT[Trp(7-Me)]K(Ac)[Pen][AEF][2Nal][Thp]K(Ac)N[3Pal][Sar]-NH2; disulfide 1-6 (inferred)) | 160
6 | Cc1cccc2c(C[C@@H]3NC(=O)[C@H]([C@@H](C)O)NC(=O)[C@H](CC(=O)N(C)C)NC(=O)[C@@H](NC(=O)CCCCC[N+](C)(C)C)C(C)(C)SSC(C)(C)[C@@H](C(=O)N[C@@H](Cc4ccc(OCCN(C)C)cc4)C(=O)N[C@@H](Cc4ccc5ccccc5c4)C(=O)NC4(C(=O)N[C@@H](CCC(=O)N(C)C)C(=O)N[C@@H](CC(N)=O)C(=O)N[C@@H](Cc5cccnc5)C(=O)N(C)CC(=O)N(C)C)CCOCC4)NC(=O)[C@H](CCC(=O)N(C)C)NC3=O)c[nH]c12 [compound 91, 5cpaCO-Pen(3)-N(N(Me)2)-T-7MeW-Q(N(Me)2)-Pen(3)-AEF(N(Me)2)-2Nal-THP-Q(N(Me)2)-N-3Pya-Sar-CON(Me)2] ({Hexanoyl(6-NMe3+)}-[Pen]D(NMe2)T[Trp(7-Me)]E(NMe2)[Pen]Y(Me2NCH2CH2)[2Nal][Thp]E(NMe2)N[3Pal][Sar]-NMe2; disulfide 1-6) | 145
7 | COCCOCCOCCOCCOCCOCCC(=O)N(C)CCCC[C@H](NC(=O)C1(NC(=O)[C@H](Cc2ccc3ccccc3c2)NC(=O)[C@H](Cc2ccc(OCCN)cc2)NC(=O)[C@H]2NC(=O)[C@H](CCCCNC(C)=O)NC(=O)[C@H](Cc3c[nH]c4c(C)cccc34)NC(=O)[C@H]([C@@H](C)O)NC(=O)[C@H](CC(N)=O)NC(=O)[C@@H](NC(C)=O)C(C)(C)SSC2(C)C)CCOCC1)C(=O)N[C@@H](CC(N)=O)C(=O)N[C@@H](Cc1cccnc1)C(=O)N(C)CC(N)=O [compound 92] (Ac-[Pen]NT[Trp(7-Me)]K(Ac)[Pen][AEF][2Nal][Thp][Lys(Me)](X7)N[3Pal][Sar]-NH2; disulfide 1-6) | 151
8 | CC(=O)N(C)CCCC[C@@H]1NC(=O)[C@H](Cc2c[nH]c3c(C)cccc23)NC(=O)[C@H]([C@@H](C)O)NC(=O)[C@H](CC(=O)N(C)C)NC(=O)[C@@H](NC(=O)[C@H](CCCC[N+](C)(C)C)NC(=O)C(F)(F)F)C(C)(C)SSC(C)(C)[C@@H](C(=O)N[C@@H](Cc2ccc(OCCN(C)C)cc2)C(=O)N[C@@H](Cc2ccc3ccccc3c2)C(=O)NC2(C(=O)N[C@@H](CCC(=O)O)C(=O)N[C@@H](CC(N)=O)C(=O)N[C@@H](Cc3cccnc3)C(=O)N(C)CC(=O)N(C)C)CCOCC2)NC1=O [compound 93, CF3CO-K(Me)3-Pen(3)-N(N(Me)2)-T-7MeW-K(NMeAc)-Pen(3)-AEF(N(Me)2)-2Nal-THP-E-N-3Pya-Sar-CON(Me)2] (Tfa-[Lys(Me3)][Pen]D(NMe2)T[Trp(7-Me)][Lys(Me)](Ac)[Pen]Y(Me2NCH2CH2)[2Nal][Thp]EN[3Pal][Sar]-NMe2; disulfide 2-7) | 151
9 | CC(=O)N(C)CCCC[C@@H]1NC(=O)[C@H](Cc2c[nH]c3c(C(F)(F)F)cccc23)NC(=O)[C@H]([C@@H](C)O)NC(=O)[C@H](CC(=O)N(C)C)NC(=O)[C@@H](NC(=O)C(F)(F)F)C(C)(C)SSC(C)(C)[C@@H](C(=O)N[C@@H](Cc2ccc(OCCN)cc2)C(=O)N[C@@H](Cc2ccc3ccccc3c2)C(=O)NC2(C(=O)N[C@@H](CCCCN(C)C(C)=O)C(=O)N[C@@H](CC(N)=O)C(=O)N[C@@H](Cc3cccnc3)C(=O)N(C)CC(=O)N(C)C)CCOCC2)NC1=O [compound 94, CF3CO-Pen(3)-N(N(Me)2)-T-7CF3W-K(NMeAc)-Pen(3)-AEF-2Nal-THP-K(NMeAc)-N-3Pya-Sar-CON(Me)2] (Tfa-[Pen]D(NMe2)T[Trp(7-CF3)][Lys(Me)](Ac)[Pen][AEF][2Nal][Thp][Lys(Me)](Ac)N[3Pal][Sar]-NMe2; disulfide 1-6) | 142
10 | CC(=O)N(C)CCCC[C@@H]1NC(=O)[C@H](Cc2c[nH]c3c(C(F)(F)F)cccc23)NC(=O)[C@H]([C@@H](C)O)NC(=O)[C@H](CC(=O)N(C)C)NC(=O)[C@@H](NC(=O)C(F)(F)F)C(C)(C)SSC(C)(C)[C@@H](C(=O)N[C@@H](Cc2ccc(OCCN(C)C)cc2)C(=O)N[C@@H](Cc2ccc3ccccc3c2)C(=O)NC2(C(=O)N[C@@H](CCCCN(C)C(C)=O)C(=O)N[C@@H](CC(N)=O)C(=O)N[C@@H](Cc3cccnc3)C(=O)N(C)CC(=O)N(C)C)CCOCC2)NC1=O [compound 95, CF3CO-Pen(3)-N(N(Me)2)-T-7CF3W-K(NMeAc)-Pen(3)-AEF(N(Me)2)-2Nal-THP-K(NMeAc)-N-3Pya-Sar-CON(Me)2] (Tfa-[Pen]D(NMe2)T[Trp(7-CF3)][Lys(Me)](Ac)[Pen]Y(Me2NCH2CH2)[2Nal][Thp][Lys(Me)](Ac)N[3Pal][Sar]-NMe2; disulfide 1-6 (inferred)) | 131
11 | CC(=O)NCCCC[C@@H]1NC(=O)[C@H](Cc2c[nH]c3c(C)cccc23)NC(=O)[C@H]([C@@H](C)O)NC(=O)[C@H](CC(N)=O)NC(=O)[C@@H](NC(=O)CCCCC[N+](C)(C)C)C(C)(C)SSC(C)(C)[C@@H](C(=O)N[C@@H](Cc2ccc(OCCN)cc2)C(=O)N[C@@H](Cc2ccc3ccccc3c2)C(=O)NC2(C(=O)N[C@@H](CNC(C)=O)C(=O)N[C@@H](CC(N)=O)C(=O)N[C@@H](Cc3cccnc3)C(=O)N(C)CC(N)=O)CCOCC2)NC1=O [compound 99] ({Hexanoyl(6-NMe3+)}-[Pen]NT[Trp(7-Me)]K(Ac)[Pen][AEF][2Nal][Thp][Dap](Ac)N[3Pal][Sar]-NH2; disulfide 1-6 (inferred)) | 164
12 | CC(=O)NCCCC[C@@H]1NC(=O)[C@H](Cc2c[nH]c3c(C)cccc23)NC(=O)[C@H]([C@@H](C)O)NC(=O)[C@H](CC(N)=O)NC(=O)[C@@H](NC(C)=O)C(C)(C)SSC(C)(C)[C@@H](C(=O)N[C@@H](Cc2ccc(OCCN(C)C)cc2)C(=O)N[C@@H](Cc2ccc3ccccc3c2)C(=O)NC2(C(=O)N[C@@H](CNC(C)=O)C(=O)N[C@@H](CC(N)=O)C(=O)N[C@@H](Cc3cccnc3)C(=O)N(C)CC(N)=O)CCOCC2)NC1=O [compound 102] (Ac-[Pen]NT[Trp(7-Me)]K(Ac)[Pen]Y(Me2NCH2CH2)[2Nal][Thp][Dap](Ac)N[3Pal][Sar]-NH2; disulfide 1-6) | 156
13 | CC(=O)NCCCC[C@@H]1NC(=O)[C@H](Cc2c[nH]c3c(C)cccc23)NC(=O)[C@H]([C@@H](C)O)NC(=O)[C@H](CC(N)=O)NC(=O)[C@@H](NC(=O)[C@@H](CCCCNC(=O)CCC(=O)N[C@H](CC(=O)O)C[N+](C)(C)C)NC(C)=O)C(C)(C)SSC(C)(C)[C@@H](C(=O)N[C@@H](Cc2ccc(OCCN)cc2)C(=O)N[C@@H](Cc2ccc3ccccc3c2)C(=O)NC2(C(=O)N[C@@H](CCCCNC(C)=O)C(=O)N[C@@H](CC(N)=O)C(=O)N[C@@H](Cc3cccnc3)C(=O)N(C)CC(N)=O)CCOCC2)NC1=O [compound 107] (Ac-[dK]([Suc-X19])[Pen]NT[Trp(7-Me)]K(Ac)[Pen][AEF][2Nal][Thp]K(Ac)N[3Pal][Sar]-NH2; disulfide 2-7) | 173
